Test: xn = mol fraction of the nth substance listed
Conditions: Liquid, Vibrating tube method

CCCCCCCCCC [decane] + CCO
Conditions | mass density [kg/m3]
323 K, 1000 kPa, x2 = 0.1011 | 707.24
323 K, 2000 kPa, x2 = 0.1011 | 708.19
323 K, 3000 kPa, x2 = 0.1011 | 709.13
323 K, 4000 kPa, x2 = 0.1011 | 710.05
323 K, 5000 kPa, x2 = 0.1011 | 710.96
323 K, 6000 kPa, x2 = 0.1011 | 711.86
323 K, 7000 kPa, x2 = 0.1011 | 712.75
323 K, 8000 kPa, x2 = 0.1011 | 713.62
323 K, 9000 kPa, x2 = 0.1011 | 714.5
323 K, 10000 kPa, x2 = 0.1011 | 715.37
323 K, 11000 kPa, x2 = 0.1011 | 716.23
323 K, 12000 kPa, x2 = 0.1011 | 717.09
323 K, 13000 kPa, x2 = 0.1011 | 717.94
323 K, 14000 kPa, x2 = 0.1011 | 718.79
323 K, 15000 kPa, x2 = 0.1011 | 719.61
323 K, 16000 kPa, x2 = 0.1011 | 720.42
323 K, 17000 kPa, x2 = 0.1011 | 721.22
323 K, 18000 kPa, x2 = 0.1011 | 722.01
323 K, 19000 kPa, x2 = 0.1011 | 722.76
323 K, 20000 kPa, x2 = 0.1011 | 723.51
323.03 K, 1000 kPa, x2 = 0.7526 | 729.67
323.03 K, 2000 kPa, x2 = 0.7526 | 730.66
323.03 K, 3000 kPa, x2 = 0.7526 | 731.64
323.03 K, 4000 kPa, x2 = 0.7526 | 732.61
323.03 K, 5000 kPa, x2 = 0.7526 | 733.56
323.03 K, 6000 kPa, x2 = 0.7526 | 734.49
323.03 K, 7000 kPa, x2 = 0.7526 | 735.43
323.03 K, 8000 kPa, x2 = 0.7526 | 736.37
323.03 K, 9000 kPa, x2 = 0.7526 | 737.3
323.03 K, 10000 kPa, x2 = 0.7526 | 738.24
323.03 K, 11000 kPa, x2 = 0.7526 | 739.17
323.03 K, 12000 kPa, x2 = 0.7526 | 740.08
323.03 K, 13000 kPa, x2 = 0.7526 | 741
323.03 K, 14000 kPa, x2 = 0.7526 | 741.9
323.03 K, 15000 kPa, x2 = 0.7526 | 742.78
323.03 K, 16000 kPa, x2 = 0.7526 | 743.66
323.03 K, 17000 kPa, x2 = 0.7526 | 744.51
323.03 K, 18000 kPa, x2 = 0.7526 | 745.35
323.03 K, 19000 kPa, x2 = 0.7526 | 746.18
323.03 K, 20000 kPa, x2 = 0.7526 | 746.98
323.06 K, 1000 kPa, x2 = 0.2507 | 709.58
323.06 K, 2000 kPa, x2 = 0.2507 | 710.54
323.06 K, 3000 kPa, x2 = 0.2507 | 711.48
323.06 K, 4000 kPa, x2 = 0.2507 | 712.41
323.06 K, 5000 kPa, x2 = 0.2507 | 713.33
323.06 K, 6000 kPa, x2 = 0.2507 | 714.23
323.06 K, 7000 kPa, x2 = 0.2507 | 715.12
323.06 K, 8000 kPa, x2 = 0.2507 | 716.01
323.06 K, 9000 kPa, x2 = 0.2507 | 716.9
323.06 K, 10000 kPa, x2 = 0.2507 | 717.78
323.06 K, 11000 kPa, x2 = 0.2507 | 718.65
323.06 K, 12000 kPa, x2 = 0.2507 | 719.53
323.06 K, 13000 kPa, x2 = 0.2507 | 720.39
323.06 K, 14000 kPa, x2 = 0.2507 | 721.24
323.06 K, 15000 kPa, x2 = 0.2507 | 722.08
323.06 K, 16000 kPa, x2 = 0.2507 | 722.91
323.06 K, 17000 kPa, x2 = 0.2507 | 723.72
323.06 K, 18000 kPa, x2 = 0.2507 | 724.51
323.06 K, 19000 kPa, x2 = 0.2507 | 725.28
323.06 K, 20000 kPa, x2 = 0.2507 | 726.04
332.86 K, 1000 kPa, x2 = 0.0937 | 699.25
332.86 K, 1000 kPa, x2 = 0.9014 | 736.03
332.86 K, 2000 kPa, x2 = 0.0937 | 700.26
332.86 K, 2000 kPa, x2 = 0.9014 | 737.11
332.86 K, 3000 kPa, x2 = 0.0937 | 701.26
332.86 K, 3000 kPa, x2 = 0.9014 | 738.18
332.86 K, 4000 kPa, x2 = 0.0937 | 702.24
332.86 K, 4000 kPa, x2 = 0.9014 | 739.22
332.86 K, 5000 kPa, x2 = 0.0937 | 703.21
332.86 K, 5000 kPa, x2 = 0.9014 | 740.19
332.86 K, 6000 kPa, x2 = 0.0937 | 704.16
332.86 K, 6000 kPa, x2 = 0.9014 | 741.29
332.86 K, 7000 kPa, x2 = 0.0937 | 705.1
332.86 K, 7000 kPa, x2 = 0.9014 | 742.31
332.86 K, 8000 kPa, x2 = 0.0937 | 706.03
332.86 K, 8000 kPa, x2 = 0.9014 | 743.33
332.86 K, 9000 kPa, x2 = 0.0937 | 706.94
332.86 K, 9000 kPa, x2 = 0.9014 | 744.36
332.86 K, 10000 kPa, x2 = 0.0937 | 707.85
332.86 K, 10000 kPa, x2 = 0.9014 | 745.34
332.86 K, 11000 kPa, x2 = 0.0937 | 708.77
332.86 K, 11000 kPa, x2 = 0.9014 | 746.35
332.86 K, 12000 kPa, x2 = 0.0937 | 709.67
332.86 K, 12000 kPa, x2 = 0.9014 | 747.33
332.86 K, 13000 kPa, x2 = 0.0937 | 710.57
332.86 K, 13000 kPa, x2 = 0.9014 | 748.31
332.86 K, 14000 kPa, x2 = 0.0937 | 711.45
332.86 K, 14000 kPa, x2 = 0.9014 | 749.26
332.86 K, 15000 kPa, x2 = 0.0937 | 712.31
332.86 K, 15000 kPa, x2 = 0.9014 | 750.21

— the NIST ThermoML archive (doi:10.1016/j.jct.2012.06.012)
